Earlier results as cited in patent US20090215676A1, “Method of treatment” (priority 2005, published 2009).
Like-named read-outs stand apart in the source and are kept apart here.

Tests used:
GH and IGF-1 levels = conditions: for acromegalic patients in whom GH and IGF-1 levels are reduced: human, in vivo; for share of responding patients whose GH and IGF-1 levels are reduced to normal levels (full responders): of the approximately 90% who respond
IGF-I levels = conditions: for daily pegvisomant dose needed: former pegvisomant registration studies
IGF-I [1] = conditions: once weekly pegvisomant dose of 80 mg, monotherapy
IGF-I [2] = conditions: alternate day administration, monotherapy; of 10 patients
insulin sensitivity = conditions: in vivo

Compound: CC(C)[C@@H]1NC(=O)[C@H](CCCCN)NC(=O)[C@@H](Cc2c[nH]c3ccccc23)NC(=O)[C@H](Cc2ccc(O)cc2)NC(=O)[C@@H](NC(=O)[C@H](N)Cc2ccc3ccccc3c2)CSSC[C@@H](C(=O)N[C@H](C(N)=O)[C@@H](C)O)NC1=O [LANREOTIDE]
- acromegalic patients in whom GH and IGF-1 levels are reduced (GH and IGF-1 levels): approximately 90%
- share of responding patients whose GH and IGF-1 levels are reduced to normal levels (full responders) (GH and IGF-1 levels): one-half to two-thirds

Compound: C[C@@H](O)[C@@H]1NC(=O)[C@H](CCCCN)NC(=O)[C@@H](Cc2c[nH]c3ccccc23)NC(=O)[C@H](Cc2ccccc2)NC(=O)[C@@H](NC(=O)[C@H](N)Cc2ccccc2)CSSC[C@@H](C(=O)N[C@H](CO)[C@@H](C)O)NC1=O [OCTREOTIDE]
- acromegalic patients in whom GH and IGF-1 levels are reduced (GH and IGF-1 levels): approximately 90%
- share of responding patients whose GH and IGF-1 levels are reduced to normal levels (full responders) (GH and IGF-1 levels): one-half to two-thirds

Compound: pegvisomant
- daily pegvisomant dose needed (IGF-I levels; one subject): 35 mg
- daily dose needed by the average patient (IGF-I levels; pegvisomant monotherapy): approximately 20 mg
- acromegalics with IGF-I levels normalized (IGF-I levels; pegvisomant monotherapy, listed as PEGVISOMANT): 75%-95%
- acromegalics with IGF-I levels normalized (IGF-I levels; pegvisomant monotherapy, listed as Pegvisomant): > 90%
- daily pegvisomant dose needed (IGF-I levels; two subjects): 40 mg
- share of patients with IGF-I normalized (IGF-I [1]): less than one-third
- patients in whom the regimen failed to maintain IGF-I within the age-adjusted normal range (IGF-I [2]): 7 patients
- effect on insulin sensitivity (insulin sensitivity): improves insulin sensitivity as compared to somatostatin analogues
- effect on tumor growth (tumor size; clinical experience): does not prevent tumor growth in some patients
- effect on mean tumor size (tumor size; follow-up with pegvisomant monotherapy to date): do not indicate that pegvisomant increases mean tumor size
